Results published in paper PMC11898488, “A2A Adenosine Receptor Antagonists and Their Efficacy in Rat Models of Parkinson’s Disease” (Cells, 2025).
Like-named read-outs stand apart in the source and are kept apart here.

What was measured:
[1] = molecular target: T1, human A2AAR (Homo sapiens, UniProt P29274); conditions: cited from earlier work
T1 construct: expressed in transfected cells; host or cells: CHO cells, crude membrane fractions

[2] = molecular target: T2, human A3AR (Homo sapiens, UniProt P0DMS8); conditions: [3H]-NECA displacement, human A3AR in CHO cells; geometric mean with 95% confidence limits; read-out: Ki A3; cited from earlier work
T2 construct: expressed in transfected cells; host or cells: CHO cells, crude membrane fractions
T2 sequence (P0DMS8 1-318): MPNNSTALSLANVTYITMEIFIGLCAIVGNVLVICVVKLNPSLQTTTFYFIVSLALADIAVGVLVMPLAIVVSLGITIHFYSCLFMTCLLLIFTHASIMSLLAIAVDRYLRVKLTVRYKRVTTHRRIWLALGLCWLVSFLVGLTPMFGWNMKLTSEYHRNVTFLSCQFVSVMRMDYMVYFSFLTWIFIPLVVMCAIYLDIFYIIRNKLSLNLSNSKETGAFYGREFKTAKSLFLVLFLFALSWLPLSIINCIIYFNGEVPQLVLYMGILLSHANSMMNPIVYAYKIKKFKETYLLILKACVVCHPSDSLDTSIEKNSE

[3] = molecular target: T1, human A2AAR; experiment: Radioligand binding, displacement of [3H]NECA at human A2AAR in CHO cells; conditions: for Selectivity A1/A2A / Selectivity A3/A2A: ratio of Ki values at human ARs; for Ki: [3H]-NECA displacement, geometric mean with 95% confidence limits, read-out: Ki A2A
Procedure: (§1) The radioligand binding experiments were carried out exactly as described previously. For A1AR binding, 1 nM [^3H]CCPA was used as a radioligand, whereas 30 and 10 nM [^3H]NECA were used for A2A and A3 ARs, respectively. Nonspecific binding was determined in the presence of 1 mM theophylline (A1AR) or […] R-PIA (A2A and A3 ARs). Ki values were calculated from competition curves by nonlinear curve fitting with the program SCTFIT [31].
(§2) CHO cells stably transfected with human ARs were grown adherently and maintained in Dulbecco’s Modified Eagles Medium with nutrient mixture F12 (DMEM/F12) without nucleosides, containing 10% fetal calf serum, penicillin (100 U/mL), streptomycin (100 μg/mL), L-glutamine (2 mM), and Geneticin (G-418, 0.2 mg/mL) at 37 °C in 5% CO2/95% air, as described earlier. For radioligand binding studies and measurement of adenylyl cyclase activity, crude membrane fractions were prepared from fresh or frozen cells with two different protocols described earlier. The determination of adenylyl cyclase activity followed the procedure described earlier. IC50 values for the inhibition of adenylyl cyclase stimulated (in the case of A2BAR) with 5 μM NECA were calculated with the Hill equation and converted to Ki values with the Cheng and Prusoff equation [32].
(§3) [^3H]CCPA (2-chloro-N^6-cyclopentylAdo) and [^3H]NECA (5′-N-ethylcarboxamidoAdo) were used as specific radioligands at A1ARand A2A / A3 ARs, respectively. Furthermore, the ability of the same compounds to inhibit NECA-stimulated adenylyl cyclase activity was evaluated at the A2BAR subtype. The results of the binding studies (A1, A2A, and A3 ARs) and functional data (A2BAR) are reported in Table 1 as Ki or IC50 values in nM, together with the data on the reference compounds 1–3.

[4] = molecular target: T3, human A1AR (Homo sapiens, UniProt P30542); conditions: [3H]-CCPA displacement, human A1AR in CHO cells; geometric mean with 95% confidence limits; read-out: Ki A1; cited from earlier work
T3 construct: expressed in transfected cells; host or cells: CHO cells, crude membrane fractions
T3 sequence (P30542 1-326): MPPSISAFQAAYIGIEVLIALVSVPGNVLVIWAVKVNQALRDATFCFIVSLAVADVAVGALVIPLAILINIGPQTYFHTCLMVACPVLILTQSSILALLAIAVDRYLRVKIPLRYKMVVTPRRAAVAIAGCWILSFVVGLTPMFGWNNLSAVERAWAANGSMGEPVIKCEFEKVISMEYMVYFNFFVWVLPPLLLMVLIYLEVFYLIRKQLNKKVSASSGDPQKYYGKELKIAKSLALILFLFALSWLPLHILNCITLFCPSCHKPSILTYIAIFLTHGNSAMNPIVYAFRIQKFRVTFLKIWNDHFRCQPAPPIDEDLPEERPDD

[5] = molecular target: T4, human A2BAR (Homo sapiens, UniProt P29275); conditions: inhibition of NECA-stimulated AC activity, CHO cells expressing human A2BAR; geometric mean with 95% confidence limits; read-out: IC50 A2B; cited from earlier work
T4 construct: expressed in transfected cells; host or cells: CHO cells, crude membrane fractions
T4 sequence (P29275 1-332): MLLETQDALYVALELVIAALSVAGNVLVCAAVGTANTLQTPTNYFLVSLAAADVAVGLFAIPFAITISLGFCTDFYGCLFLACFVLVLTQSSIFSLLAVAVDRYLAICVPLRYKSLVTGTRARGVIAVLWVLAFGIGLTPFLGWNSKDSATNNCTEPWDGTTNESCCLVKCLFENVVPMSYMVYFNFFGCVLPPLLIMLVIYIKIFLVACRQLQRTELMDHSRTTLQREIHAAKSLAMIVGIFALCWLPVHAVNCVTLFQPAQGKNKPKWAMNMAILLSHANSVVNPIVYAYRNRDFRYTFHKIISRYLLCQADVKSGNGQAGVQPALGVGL

[6] = molecular target: T4, human A2BAR; experiment: Inhibition of NECA-stimulated adenylyl cyclase activity at human A2BAR; format: biochemical; conditions: inhibition of NECA-stimulated AC activity, CHO cells expressing human A2BAR, read-out: IC50 A2B
Procedure: as §2, §3

[7] = molecular target: T3, human A1AR; experiment: Radioligand binding, displacement of [3H]CCPA at human A1AR in CHO cells; conditions: for Ki: [3H]-CCPA displacement, geometric mean with 95% confidence limits, read-out: Ki A1
Procedure: as §1, §2, §3

[8] = molecular target: T2, human A3AR; experiment: Radioligand binding, displacement of [3H]NECA at human A3AR in CHO cells; conditions: [3H]-NECA displacement, read-out: Ki A3
Procedure: as §1, §2, §3

[9] = [3H]-NECA displacement, human A2AAR in CHO cells, geometric mean with 95% confidence limits, read-out: Ki A2A
[10] = geometric mean with 95% confidence limits

T1 sequence (P29274 whole entry): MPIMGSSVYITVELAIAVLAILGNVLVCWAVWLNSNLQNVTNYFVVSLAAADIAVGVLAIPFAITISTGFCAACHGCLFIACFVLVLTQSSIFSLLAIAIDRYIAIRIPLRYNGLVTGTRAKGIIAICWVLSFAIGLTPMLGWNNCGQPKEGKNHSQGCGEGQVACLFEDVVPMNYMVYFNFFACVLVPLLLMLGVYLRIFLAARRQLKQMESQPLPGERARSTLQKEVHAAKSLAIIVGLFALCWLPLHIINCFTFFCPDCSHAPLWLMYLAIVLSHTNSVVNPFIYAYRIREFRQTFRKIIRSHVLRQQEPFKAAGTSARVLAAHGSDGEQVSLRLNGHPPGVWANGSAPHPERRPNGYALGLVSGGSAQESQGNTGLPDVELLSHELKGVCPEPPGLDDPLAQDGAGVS

| Structure (SMILES) | Selectivity A1/A2A [3] | Selectivity A3/A2A [3] | IC50 [6, 10] [µM] | Ki ([3]; human A2AAR in CHO cells) [nM] | Ki [7] [nM] | Ki [8, 10] [µM] | IC50 ([6]; bound given in µM) [µM] | Affinity at A2A AR, in words ([3]; human A2AAR in CHO cells) | Affinity at A1 AR, in words [7] | Ki ([8]; bound given in µM) [µM] | Ki ([1]; read-out: Ki at the human A2AAR) [nM] | Ki [2] [nM] | Ki [4] [nM] | IC50 [5] [nM] | Ki [1, 9] [nM] |
| --- | --- | --- | --- | --- | --- | --- | --- | --- | --- | --- | --- | --- | --- | --- | --- |
| CCOc1nc2c(N)ncnc2n1CC [ANR 94, 9-ethyl-8-ethoxyadenine, reference compound] | – | – | – | – | – | – | – | – | – | – | 46 | – | – | – | – |
| CCn1c(-c2ccco2)nc2c(N)nc(OCCc3ccccc3)nc21 [Compound 2, 9-ethyl-8-furyl-2-phenetoxyadenine] | 2.6 | 7.3 | – | – | – | – | – | – | – | – | – | 16 | 5.8 | 521 | 2.2 |
| CCn1cnc2c(N)nc(OCCc3ccccc3)nc21 [Compound 3, 9-ethyl-2-phenethoxyadenine] | 1.4 | 59 | – | – | – | – | – | – | – | – | – | 7150 | 170 | 45800 | 120 |
| CCn1c(-c2cccs2)nc2c(N)nc(OCCc3ccccc3)nc21 [Compound 6] | 2.7 | 3.5 | 4.99 | 7.7 | 21 | 0.027 | – | – | – | – | – | – | – | – | – |
| CCn1c(C2CCCO2)nc2c(N)nc(OCCc3ccccc3)nc21 (centres unmarked) [Compound 7] | 6.3 | 18 | 38.9 | 81 | 509 | 1.45 | – | – | – | – | – | – | – | – | – |

More lines, main results first:

| Selectivity A1/A2A [3] | Selectivity A3/A2A [3] | IC50 [6, 10] [µM] | Ki ([3]; human A2AAR in CHO cells) [nM] | Ki [7] [nM] | Ki [8, 10] [µM] | IC50 ([6]; bound given in µM) [µM] | Affinity at A2A AR, in words ([3]; human A2AAR in CHO cells) | Affinity at A1 AR, in words [7] | Ki ([8]; bound given in µM) [µM] | Structure (SMILES) | Ki ([1]; read-out: Ki at the human A2AAR) [nM] | Ki [2] [nM] | Ki [4] [nM] | IC50 [5] [nM] | Ki [1, 9] [nM] |
| --- | --- | --- | --- | --- | --- | --- | --- | --- | --- | --- | --- | --- | --- | --- | --- |
| 3.0 | 19 | 63.7 | 655 | 1990 | 12.3 | – | – | – | – | CCn1cnc2c(N)nc(OCCc3ccc(OC)cc3)nc21 [Compound 9, 9-ethyl-2-(4-methoxyphenyl)ethoxyadenine] | – | – | – | – | – |
| 7.1 | 146 | 9.19 | 28 | 197 | 4.06 | – | – | – | – | CCn1c(Br)nc2c(N)nc(OCCc3ccc(OC)cc3)nc21 [Compound 10, 8-bromo-9-ethyl-2-(4-methoxyphenethoxy)-9H-purin-6-amine] | – | – | – | – | – |
| 5.5 | 10 | – | 7.1 | 39 | 0.073 | > 100 | – | – | – | CCn1c(-c2ccco2)nc2c(N)nc(OCCc3ccc(OC)cc3)nc21 [Compound 11] | – | – | – | – | – |
| 3.2 | – | – | 7080 | 22900 | – | > 100 | µM affinity | µM affinity | > 100 | CCn1cnc2c(N)nc(Oc3ccc(CCO)cc3)nc21 [Compound 13, 2-(4-((6-amino-9-ethyl-9H-purin-2-yl)oxy)phenyl)ethan-1-ol] | – | – | – | – | – |
